Assay results from patent US20080312309A1, “CONTROLLED RELEASE ORAL FORMULATIONS OF ION CHANNEL MODULATING COMPOUNDS AND RELATED METHODS FOR PREVENTING ARRHYTHMIA” (priority 2007, published 2008).
Marks after values point to notes of the source that are not given here.

Assay: Disposition and mass balance of 14C-vernakalant hydrochloride after single IV and oral doses in CYP2D6 EMs and PMs
Format: in vivo, human
Conditions: for AUC0-∞ / Cmax / Tmax / t1/2: plasma, single 240-mg dose
Description: This phase 1 study used an open-label, single-sequence, crossover design. […] The specific activity of the administered dose was 0.329 μCi/mg, yielding a total radioactive dose of 78.96 μCi. Participants remained confined to the center for 7 days after drug administration to ensure collection of urine and fecal samples for recovery of radioactivity. After an additional 2-week follow-up as outpatients, the cohort returned to the center 3 weeks after each dose (i.e., days 21 and 42) for end-of-study assessments.
Additional samples were obtained 5 minutes into the IV infusion and at its end.
Urine and fecal specimens were also collected at the end-of-study assessment. Saliva for ^14C analysis was obtained before dosing, 0.25, 0.5, 2, and 8 hours afterward, and on occurrence of any treatment-related adverse event related to dysgeusia. Vomitus for ^14C analysis was collected at any time over the 7 days after oral administration when vomiting occurred.
Adverse events were evaluated daily, classified by intensity and association with treatment, and coded according to the MedDRA dictionary version 6.1. Vital signs, physical examination, 12-lead electrocardiograph (ECG), and laboratory tests including clinical chemistry, hematology, and urinalysis were evaluated at screening, 7 days after dosing, and at the end-of-study assessment. […] In addition, vital signs and 12-lead ECG were obtained 15 minutes before dosing; the vital signs assessment was repeated 15, 30, 60, and 90 minutes after dosing and then daily for 7 days.
Plasma samples first underwent solid-phase extraction on SPE cartridges containing a 30-mg MCX phase (Waters, Milford, Mass.); urine samples were analyzed directly. For the determination of glucuronide and sulphate conjugates, plasma and urine samples underwent an enzymatic deconjugation with a solution of β-glucuronidase (5000 units/mL in 0.1 M sodium acetate buffer pH 5.0) and were incubated for 30 hours (plasma) or 20 hours (urine) at 37° C. Subsequently, the urine samples were injected directly on to the column and the plasma samples were further treated with SPE as described above. […] The other part of the LC column effluent was directed to model API 3000 MS (MDX Sciex, Concord, Canada) with ionspray detection for structural confirmation and identification.
Pharmacokinetic values were analyzed using noncompartmental analysis by means of WinNonlin version 5.0 (Pharsight Corp, Mountain View, Calif.). […] Oral bioavailability (F) was determined from the ratio of AUC0-∞ after oral dosing to AUC0-∞ after IV dosing, and was used to calculate the oral clearance (CL/F), Vdz after oral dosing (Vdz/F), and Vss after oral dosing (Vss/F).
The amount of these analytes excreted in urine was calculated according to time period and cumulatively over the 7 days. Total ^14C in urine and feces (and vomitus, if applicable) was also determined by time and cumulatively over the study for the mass-balance estimation.
Concentrations below the lower limit of quantitation were set to 0. […] Safety parameters were summarized descriptively for the entire cohort.

[1] = IV infusion of 14C-vernakalant, EMs (n = 5)
[2] = IV infusion of 14C-vernakalant, PMs (n = 2)
[3] = oral administration of 14C-vernakalant, EMs (n = 5)
[4] = oral administration of 14C-vernakalant, PMs (n = 2)
[5] = IV infusion, EMs (n = 5), listed as Compound 2G
[6] = oral administration, EMs (n = 5)
[7] = oral administration, PMs (n = 2)

SMILES | Cumulative Amount Excreted in Urine During the 7 Days After Administration [1] | Cumulative Amount Excreted in Urine During the 7 Days After Administration [2] | Cumulative Amount Excreted in Urine During the 7 Days After Administration [3] | Cumulative Amount Excreted in Urine During the 7 Days After Administration [4] | AUC0-∞ (IV infusion, EMs (n = 5)) | Cmax (IV infusion, EMs (n = 5)) | Tmax (IV infusion, EMs (n = 5)) | t1/2 (IV infusion, EMs (n = 5)) | AUC0-∞ (IV infusion, PMs (n = 2)) | Cmax (IV infusion, PMs (n = 2)) | Tmax (IV infusion, PMs (n = 2)) | t1/2 (IV infusion, PMs (n = 2)) | AUC0-∞ [6] | Cmax [6] | Tmax [6] | t1/2 [6] | AUC0-∞ [7] | Cmax [7] | Tmax [7] | t1/2 [7] | further results
COc1cc(CCO[C@@H]2CCCC[C@H]2N2CC[C@@H](O)C2)ccc1OC1OC(C(=O)O)C(O)C(O)C1O (stereo partly drawn) [Compound 2 glucuronide] | 120.01 ± 19.03 mg | 11.36 ± 5.52 mg | 121.76 ± 44.38 mg | 12.03 ± 0.51 mg | 20,711 ± 2708 ng · h/mL | 3489 ± 371.4 ng/mL | 1.44 ± 0.69 h | 3.29 ± 0.21 h | 1933 ± 360.0 ng·h/mL | 180.5 ± 48.8 ng/mL | 2.17 ± 0.0 h | 5.59 ± 0.73 h | 21,182 ± 3137 ng · h/mL | 3824 ± 349.3 ng/mL | 2.4 h | 3.2 h | 2025 ± 65.9 ng·h/mL | 230.5 ± 4.99 ng/mL | 2.00 ± 0.0 h | 5.01 ± 0.49 h | mean AUC0-∞, times higher in EMs than in PMs (plasma metabolite): 10 times; Tmax [5]: 1.4 h; t1/2 [5]: 3.3 h
COc1cc(CCO[C@@H]2CCCC[C@H]2N2CC[C@@H](O)C2)ccc1O [Compound 2] | 3.11 ± 0.85 mg | 0.48 ± 0.02 mg | 3.88 ± 1.14 mg | 0.62 ± 0.19 mg | 202.5 ± 66.6 ng·h/mL | 68.6 ± 18.0 ng/mL | – | 2.28 ± 0.29 h | – | 3.31 ± 4.67 ng/mL | – | – | 225.2 ± 76.8 ng·h/mL | 63.2 ± 21.9 ng/mL | – | 2.19 ± 0.29 h | – | 6.25 ± 8.84 ng/mL | – | – | –
COc1ccc(CCO[C@@H]2CCCC[C@H]2N2CC[C@@H](O)C2)cc1O [Compound 3] | 0.04 ± 0.02 mg | 0.16 ± 0.12 mg | 0.05 ± 0.03 mg | 0.12 ± 0.05 mg | – | 2.85 ± 3.94 ng/mL | 0.34 ± 0.12 h | – | – | 3.72 ± 5.26 ng/mL | 0.42^† h | – | – | 1.41 ± 3.16 ng/mL | 0.77^† h | – | – | 9.08 ± 2.16 ng/mL | 1.25 ± 1.06 h | – | detectability in plasma (after vernakalant hydrochloride dosing): not detectable in plasma at most time points
COc1ccc(CCO[C@@H]2CCCC[C@H]2N2CC[C@@H](O[C@@H]3O[C@H](C(=O)O)[C@@H](O)[C@H](O)[C@H]3O)C2)cc1OC [Vernakalant glucuronide] | 8.91 ± 2.86 mg | 44.22 ± 15.10 mg | 11.31 ± 6.48 mg | 50.20 ± 14.99 mg | 1791 ± 764.1 ng·h/mL | 455.6 ± 118.9 ng/mL | 0.48 ± 0.13 h | 2.76 ± 0.65 h | 8074 ± 118.6 ng·h/mL | 942.0 ± 213.5 ng/mL | 1.67 ± 0.71 h | 6.58 ± 2.59 h | 2076 ± 809.3 ng·h/mL | 496.0 ± 158.5 ng/mL | 1.80 ± 0.45 h | 2.57 ± 0.41 h | 7759 ± 1252 ng·h/mL | 1078 ± 297.7 ng/mL | 1.38 ± 0.88 h | 4.32 ± 0.27 h | AUC0-∞, times higher in PMs than EMs (plasma metabolite): approximately 4 times
